Reference: article PMC4109680, “Identification and Preclinical Pharmacology of the γ-Secretase Modulator BMS-869780” (International Journal of Alzheimer's Disease, 2014)
“Also recorded” adds a separate entry of the source.

Tests used:
Assay type in all cases: in vivo
[1] = system: duodenum, liver, and kidney; assay: Histopathology in rat 4-day oral dosing experiment
Method: Determination of IC50 values for inhibition of secreted alkaline phosphatase (SEAP) was carried out using an H4 cell line stably expressing SEAP. Cells were treated overnight with compounds in 384-well format, and SEAP accumulation in the culture media was quantified using a chemiluminescence substrate. The pregnane-X-receptor transactivation assay (PXR-TA) was based on the methods of Goodwin et al. as described previously. In the 4-day rat study with BMS-869780, tissues were fixed in 10% neutral buffered formalin, embedded in paraffin, sectioned, stained with hematoxylin and eosin, and examined by light microscopy.
As a preliminary evaluation of safety in vivo, male and female rats were given 10, 30, and 100 mg/kg BMS-869780 orally once daily for 4 days. Endpoints included brain Aβ1-42, as described above (Figures 7(d) and 7(e)), plasma PK on day 1 and day 3 (Table 4), and histopathology for duodenum, liver, and kidney.

[2] = system: brain Aβ1-42; assay: Rat time course PK/PD, oral dose, indirect response model; conditions: for IC50: po
Method: (§1) Figure 8 Analysis of the PK/PD relationship for BMS-869780 in rats and mice. Rats were dosed orally with BMS-869780 at 10 mg/kg, and triple transgenic mice were orally dosed at 30 mg/kg and 100 mg/kg. Additional groups of rats and mice were dosed with vehicle alone. Brain and plasma were harvested at 3, 5, 8, 16, and 24 hours after dosing for determination of brain Aβ1-42 and plasma BMS-869780 concentration. Group sizes were 5 rats or 4 mice. Whiskers represent standard error. […] The data were fit to a one-compartment PK model and the predicted plasma BMS-869780 concentrations are shown for mouse (solid lines) and rat (broken line). […] The data were fitted using the indirect pharmacodynamic response model and predicted values are shown (solid lines). (c) Brain Aβ1-42 levels were determined for the rats dosed with BMS-869780 at 10 mg/kg (▼) or vehicle alone (●). The data were fitted using the indirect pharmacodynamic response model and predicted values are shown (dashed line). (d) Brain Aβ1-40 levels determined in the same rats as illustrated in (c).
(§2) All experimental procedures with animals followed National Institutes of Health guidelines and were authorized by and in compliance with policies of the Bristol-Myers Squibb Animal Use and Care Committee. Mice and rats were housed with a 6:00 AM to 6:00 PM light/dark cycle and allowed free access to food and water. For 3xTg mice, BMS-869780 was dosed in three-month-old females by oral gavage at 6 mL/kg in vehicle consisting of 84% polyethylene glycol average molecular weight of 400 (PEG-400), 15% EtOH, and 1% Tween-80 (w/w/w). The compound was dissolved in EtOH and then diluted with PEG-400 and Tween, after which the vial was sealed, vortexed, and sonicated at 56°C for 1 hour. Animals were euthanized by asphyxiation in CO2. Blood was collected by cardiac puncture and placed into ethylene-diaminetetraacetic acid microtainer tubes for the preparation of plasma. The cerebellum was collected for the determination of compound concentration, and the remaining brain was separated into left and right halves before freezing in liquid nitrogen. For the rat time course study, 8- to 12-week-old female Sprague-Dawley rats were obtained from Charles River Laboratories (Wilmington, MA), BMS-869780 was dosed orally at 4 mL/kg, and brain and plasma samples were collected as described for the 3xTg mice. For the four day repeat dose rat study, BMS-869780 was given by oral gavage in vehicle consisting of PEG-400, PEG-200, D-α-tocopheryl polyethylene glycol succinate, Solutol HS 15, in the ratio 80 : 10 : 5 : 5 (w/w/w/w). Methods for the pharmacokinetics studies in rat, dog, and monkey are described below.
(§3) The data generated in the mouse and rat time course experiments were analyzed sequentially by nonlinear regression (WinNonlin Pharsight Corporation, Mountain View, CA). The pharmacokinetic data were best described by a 1-compartment linear model with first-order absorption and elimination. Subsequently, the pharmacodynamic parameters were estimated from the BMS-869780 plasma concentrations and the observed reductions of brain Aβ1-42 or Aβ1-40 by fitting to the equation for inhibition of synthesis. The goodness-of-fit was determined by visual inspection, Akaike Information Criterion, Schwartz Criterion, examination of the residuals and the coefficient of variation of the parameter estimates.

[3] = as above; conditions: female, Sprague-Dawley, plasma
Method: as §1, §2, §3

[4] = system: brain Aβ1-42; assay: Triple transgenic (3xTg) mouse time course PK/PD, oral dose, indirect response model; conditions: for IC50: po
Method: as §1, §2, §3

[5] = as above; conditions: female, 3xTg (triple transgenic), plasma
Method: as §1, §2, §3

[6] = Rat 10 mg/kg PO solution (observed 0–24 hours)
[7] = Mouse 30 mg/kg PO solution (observed 0–24 hours)
[8] = Mouse 100 mg/kg PO solution (observed 0–24 hours)

With `COc1cc(Nc2nc3n(n2)CCCC[C@H]3c2ccc(F)cc2)ccc1-n1cnc(Cl)c1` [BMS-869780] the “duodenum and kidney histology” value ([1]; 10, 30 and 100 mg/kg orally once daily for 4 days) was “unchanged at all dose levels”, the liver histology ([1]; at all doses (10, 30, 100 mg/kg once daily for 4 days)) was “macro- and microvesicular vacuolar degeneration” and the “separation of hepatotoxicity from Aβ1-42 lowering exposure benchmarks” value ([1]; lipidosis after four daily doses of 10 mg/kg) was “no separation of hepatotoxicity”. For the same compound, the “Notch-related effect in duodenum” value ([1]; up to 100 mg/kg once daily for 4 days) was “no Notch-related effect on differentiation in the duodenum; also recorded: did not cause any histological change in duodenum”, the “Brain Aβ ABEC 24 hr Aβ1-40” value [2, 6] was 46.1% and the “Brain Aβ ABEC 24 hr Aβ1-42” value [2, 6] was 47.0%. The IC50 ([2]; Rattus norvegicus, read-out: in vivo plasma IC50 for brain Aβ1-42) was 1900 nM, the IC50 ([2]; rat, PD model, read-out: IC50 (plasma concentration required for 50% inhibition of Aβ production)) was 1890 nM and the V/F ([2]; rat) was 1.94 L/kg. The “in vivo IC50 (corrected for protein binding) relative to in vitro IC50 for Aβ1-42” value ([2]; rat and 3xTg mouse, M146V allele taken into account for mouse) was ≤ 2 fold, the “Ka1 (10 mg/kg)” value ([2]; rat, 10 mg/kg oral) was 0.19 h⁻¹ and the “K in” value ([2]; rat, calculated) was 48 %/h. For the same compound, the “K OUT” value ([2]; rat, rate constant for degradation of Aβ) was 0.48 h⁻¹, the k el ([3]; oral, 10 mg/kg, rat, 1-compartment PK model) was 2.78e-05 s⁻¹ and the AUC(0-t) [3, 6] was 46.3 µM·h. The “Brain Aβ ABEC 24 hr Aβ1-42” value [4, 7] was 30.9%, the “Brain Aβ ABEC 24 hr Aβ1-42” value [4, 8] was 55.1% and the V/F ([4]; mouse) was 1.94 L/kg. The “Ka1 (30 mg/kg)” value ([4]; mouse, 30 mg/kg oral) was 0.11 h⁻¹, the “Ka2 (100 mg/kg)” value ([4]; mouse, 100 mg/kg oral) was 0.046 h⁻¹ and the “K in” value ([4]; mouse, calculated) was 72 %/h. For the same compound, the “K OUT” value ([4]; mouse, rate constant for degradation of Aβ) was 0.72 h⁻¹, the IC50 ([4]; mouse, PD model, read-out: IC50 (plasma concentration required for 50% inhibition of Aβ production)) was 3980 nM and the IC50 ([4]; mouse, read-out: in vivo plasma IC50 for brain Aβ1-42) was 4000 nM. For the same compound, the k el ([5]; oral, mouse, 1-compartment PK model) was 7.78e-05 s⁻¹, the AUC(0-t) [5, 7] was 45.9 µM·h and the AUC(0-t) [5, 8] was 102 µM·h.
